Measured values reported in patent US12037419B2 (The Feinstein Institutes for Medical Research, priority 2016, dated 2024).

Test system: human monocytes
Test: SeaHorse cellular flux assay (OCR, ECAR)
Format: cell-based
Conditions: C1q 25 μg ml-1 together with HMGB1 3 μg/ml, 24 h
Description: Cell metabolism analysis using SeaHorse Cellular Flux assay. […] One hour prior to measurement, culture medium was exchanged for assay medium (unbuffered DMEM (Sigma), supplemented with 10 mM Glucose, 1 mM Pyruvate and 2 mM Glutamine for mitochondrial assays, or with 2 mM Glutamine alone for glycolytic assays. Reagents were injected during the measurement to achieve final concentrations of oligomycin (1 μM), carbonyl cyanide p-(trifluoromethoxy) phenylhydrazone (FCCP) ([…]), Rotenone/antimycin A (0.5 μM). Glucose (10 mM), and 2-Deoxy-D glucose (50 mM). Oxygen consumption rate (OCR) and Extracellular acidification rate (ECAR) values were measured using a SeaHorse XfP instrument (SeaHorse bioscience). Measured values were normalized to the number of live cells present in each well as determined by a trypan blue staining by the end of each run. For OCR/ECAR ratio calculations, an average of the last two basal readings was used for both OCR and ECAR.

In the case of “C1q: C1q purified from pooled normal human sera, obtained from Complement Technology”, the “HMGB1-induced alteration in cellular metabolism” value is reported as “prevented the alteration in cellular metabolism”.
